Measurements taken from patent publication US9102620B2, “Deuterated N-ethyl-N-phenyl-1,2-dihydro-4-hydroxy-5-chloro-1-methyl-2-oxoquinoline-3-carboxamide, salts and uses thereof” (TEVA PHARMACEUTICAL INDUSTRIES, LTD., priority 2010, dated 2015).
Values joined by “and” are separate entries in the source; they are usually repeats but may differ in a detail not shown here. Identical values can stand only once. Like-named read-outs stand apart in the source and are kept apart here.

Tests used:
[1] = Pharmacokinetic profile in rat plasma following oral administration; type: in vivo
Procedure: The main objectives of this example were: • Quantification of Compound 1, Compound 2, Compound 3 and Laquinimod in rat plasma using LC/MS/MS bioanalytical method. • Characterization of the pharmacokinetic profile of Compound 1, Compound 2, Compound 3 and Laquinimod following oral (PO) administration at a dose of 0.2 mg/kg. • The measurement DELAQ concentrations in the collected plasma samples. Rats cannulated at the right common jugular vein by polyethylene tubing were used. In the in-life part, three cannulated female rats were treated with each of the four test articles at dose of 0.2 mg/kg. Blood was withdrawn from the rats at five different time points for the preparation of plasma. The concentrations of Compound 1, Compound 2, Compound 3, laquinimod, and DELAQ were determined in these plasma samples, using applicable LC/MS/MS methods. Oral administration was performed by oral gavage at a dosage volume of 5 ml/kg using a blunt feeding stainless steel needle (Popper & Sons, USA). Body weights were measured before dose administration and doses were calculated on the basis of individual body weight. Blood were withdrawn from animals at the following time points: 1, 2, 4, 8 and 24 hours after dosing as detailed in the table below. The actual sampling time were recorded. Each animal was restrained firmly. After the removal of the seal the port of the cannula was accessed with an appropriate blunted needle mounted on a syringe containing PBS. After having withdrawn approximately 100 μL of blood, the syringe was changed to a clean heparinized syringe. Approximately 250 μL of blood was collected for the preparation of plasma. The first 100 μL fraction of blood was returned and 250 μL of PBS was given to the animal through the catheter. The catheter was filled by heparinized glycerol (100 IU/ml) solution prepared by mixing 10 ml stock heparin (200 IU/ml) with 10 ml of sterile glycerol (d=1.26 g/mL). Blood specimens were mixed immediately and were placed on water ice. Whole blood was centrifuged at 2500 g for 10 min at 4° C., and the separated plasma was transferred into pre-labeled polypropylene tubes and the tubes were frozen at −70° C. within 70 minutes of collection. The concentrations of test items (Compound 1, Compound 2, Compound 3 and Laquinimod) and the concentration of DELAQ were determined in the plasma samples by using reliable LC/MS/MS assay. Pharmacokinetic parameters were calculated and the mean plasma levels versus time curves were evaluated. The following pharmacokinetic parameters were determined from the mean plasma concentration-time data (mean of three animals at each time point) of Compound 1, Compound 2, Compound 3 and Laquinimod.

MOG induced EAE = MOG induced EAE in C57BL/6 mice; type: in vivo; conditions: daily; for Mortality: Day 0 to Day 30; for % inhibition 1 (according to incidence) / % inhibition 2 (according to MMS) / % inhibition 3 (according to GMS): compared to vehicle; for Incidence: sick mice/group
[2] = tested on: human hepatocyte culture H971; test: Morphology of cultured human hepatocytes after treatment; type: cell-based; conditions: within 24 hours after final treatment
Procedure: At the time of isolation the viability of the human hepatocyte preparation was 70.9%. During and after the 72-hour adaptation period, the culture was observed daily by light microscopy and judged to be morphologically normal with confluency adequate for treatment with test and control articles. Within 24 hours after the final treatment, hepatocytes were photographed to document their morphological integrity and any overt signs of toxicity of the test articles. Representative photomicrographs are maintained at the Testing Facility. […] Prior to and during treatment, human hepatocyte cultures formed confluent monolayers with few intercellular spaces; they were cuboidal and contained intact cell membranes and granular cytoplasm with one or two centrally located nuclei.

[3] = female, rat, po, 0.2 mg/kg, Average of rats
[4] = female, rat, po, 0.2 mg/kg, Average of rats, read-out: Cmax
[5] = female, rat, po, 0.2 mg/kg, Average of rats, read-out: Tmax
[6] = female, rat, po, 0.2 mg/kg, individual rats
[7] = female, rat, po, 0.2 mg/kg, individual rats, read-out: Cmax
[8] = female, rat, po, 0.2 mg/kg, individual rats, read-out: Tmax
[9] = individual rats, oral 0.2 mg/kg

Row | Structure (SMILES) | AUC(0-inf) [1, 3] | AUC(0-t) [1, 3] | half-life [1, 3] | Cmax [1, 4] | Tmax [1, 5] | AUC(0-inf) [1, 6] | AUC(0-t) [1, 6] | half-life [1, 6] | Cmax [1, 7] | Tmax [1, 8] | AUCinf [1, 9] | AUClast [1, 9] | Cmax [1, 9] | T1/2 [1, 9] | Tmax [1, 9] | GMS value (group mean score) (MOG induced EAE; 10 mg/kg orally) | MMS value (mean maximal score) (MOG induced EAE; 10 mg/kg orally) | Mean Duration (MOG induced EAE; 10 mg/kg orally) | Mean Onset (MOG induced EAE; 10 mg/kg orally) | Mortality (MOG induced EAE; 10 mg/kg orally) | further results
1 | [2H]C([2H])([2H])C([2H])([2H])N(C(=O)c1c(O)c2c(Cl)cccc2n(C)c1=O)c1ccccc1 [Compound 2, N-D5-ethyl-N-phenyl-1,2-dihydro-4-hydroxy-5-chloro-1-methyl-2-oxoquinoline-3-carboxamide] | 12.3 µg·h/mL | 10.3 µg·h/mL | 13.8 h | 0.725 µg/mL | 1.8 h | 10 µg·h/mL | 10 µg·h/mL | 13.6 h | 0.704 µg/mL | 2 h | 14.6996 µg·h/mL and 12.439 µg·h/mL and 11.9753 µg·h/mL | 10.4221 µg·h/mL and 8.7416 µg·h/mL and 11.9753 µg·h/mL | 0.8276 µg/mL and 0.5514 µg/mL and 0.8162 µg/mL | 13.4 h and 14.6 h | 1.0 h | 0.79 ± 0.2 | 2.1 ± 1.3 | 13.2 ± 7.7 days | 15.3 ± 6.8 days | 0/15 | activity in inhibition of EAE clinical signs compared to laquinimod (MOG induced EAE; 10 mg/kg orally): no significant difference in activity; % inhibition 1 (according to incidence) (MOG induced EAE; 10 mg/kg orally): 7.1%; % inhibition 2 (according to MMS) (MOG induced EAE; 10 mg/kg orally): 34.4%; % inhibition 3 (according to GMS) (MOG induced EAE; 10 mg/kg orally): 64.3%; Incidence (MOG induced EAE; 10 mg/kg orally): 13/15; cell morphology after treatment [2]: no changes in cell morphology
2 | CCN(C(=O)c1c(O)c2c(Cl)cccc2n(C)c1=O)c1ccccc1 [Laquinimod, N-ethyl-N-phenyl-1,2-dihydro-4-hydroxy-5-chloro-1-methyl-2-oxoquinoline-3-carboxamide] | 15.5 µg·h/mL | 11.7 µg·h/mL | 11.8 h | 0.794 µg/mL | 1.7 h | 14.7 µg·h/mL | 11 µg·h/mL | 12 h | 0.77 µg/mL | 2 h | 17.1418 µg·h/mL and 14.6846 µg·h/mL | 12.6597 µg·h/mL and 11.4873 µg·h/mL | 0.7748 µg/mL and 0.8388 µg/mL | 12.4 h and 10.9 h | 1.0 h | 1.14 ± 0.5 | 2.1 ± 1.9 | 9.3 ± 8.3 days | 21.6 ± 8.4 days | 0/15 | % inhibition 1 (according to incidence) (MOG induced EAE; 10 mg/kg orally): 35.7%; % inhibition 2 (according to MMS) (MOG induced EAE; 10 mg/kg orally): 34.4%; % inhibition 3 (according to GMS) (MOG induced EAE; 10 mg/kg orally): 48.4%; % inhibition 3 (according to GMS) (MOG induced EAE; 10 mg/kg orally, listed as laquinimod): 48.4%; Incidence (MOG induced EAE; 10 mg/kg orally): 9/15; GMS value (group mean score) (MOG induced EAE; 25 mg/kg orally): 0.5±0.1 and 0.5 ± 0.13; MMS value (mean maximal score) (MOG induced EAE; 25 mg/kg orally): 1.3±1.8; Mean Duration (MOG induced EAE; 25 mg/kg orally): 3.0 ± 5.8 days; Mean Onset (MOG induced EAE; 25 mg/kg orally): 28.0 ± 5.8 days; Mortality (MOG induced EAE; 25 mg/kg orally): 0/15; % inhibition 1 (according to incidence) (MOG induced EAE; 25 mg/kg orally): 71.4%; % inhibition 2 (according to MMS) (MOG induced EAE; 25 mg/kg orally): 59.4%; % inhibition 3 (according to GMS) (MOG induced EAE; 25 mg/kg orally): 97.7%; Incidence (MOG induced EAE; 25 mg/kg orally): 4/15; cell morphology after treatment [2]: no changes in cell morphology
